According to patent US7294501B2, “Geldanamycin-producing strains, uses thereof and methods of producing same” (priority 2003, dated 2007):

Test system: acidiscabies and caviscabies
Assay: Geldanamycin activity against other common scab causing species
Assay type: cell-based
Conditions: data not shown

## COC1=C2C[C@@H](C)C[C@H](OC)[C@H](O)[C@@H](C)/C=C(\C)[C@H](OC(N)=O)[C@@H](OC)/C=C\C=C(/C)C(=O)NC(=CC1=O)C2=O [Geldanamycin]
  activity against other common scab causing bacterial species: active
